{
  "source": "patent US10590113B2",
  "about": "“6-hydroxy-4-oxo-1,4-dihydropyrimidine-5-carboxamides as APJ agonists” (priority 2016, dated 2020)",
  "data": [
    {"target": "T1, human APJ receptor (Homo sapiens, UniProt P35414)", "T1 construct": "expressed in transfected cells; host or cells: HEK293", "T1 sequence (P35414 1-380)": "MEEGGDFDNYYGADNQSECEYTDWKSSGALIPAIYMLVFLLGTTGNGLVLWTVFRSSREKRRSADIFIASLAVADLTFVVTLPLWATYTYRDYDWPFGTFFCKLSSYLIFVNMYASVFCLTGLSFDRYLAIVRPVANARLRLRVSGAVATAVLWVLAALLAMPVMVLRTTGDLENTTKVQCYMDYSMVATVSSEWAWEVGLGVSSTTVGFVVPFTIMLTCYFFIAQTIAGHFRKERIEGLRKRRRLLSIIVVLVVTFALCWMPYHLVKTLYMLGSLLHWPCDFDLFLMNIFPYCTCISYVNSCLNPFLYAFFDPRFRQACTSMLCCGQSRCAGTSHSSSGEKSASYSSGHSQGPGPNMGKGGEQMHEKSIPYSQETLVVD", "assay": "Intracellular cAMP Accumulation Assay (APJ hcAMP, HTRF)", "assay_type": "cell-based", "settings": "human APJ, cAMP accumulation; potency range class; read-out: hAPJ cAMP EC50 Potency range", "protocol": "(§1) Intracellular cAMP Accumulation Assay\n(§2) HEK293 cells stably expressing human APJ receptor were used to assess the activity of compounds. Cultured cells were detached and resuspended in the cAMP\n(§3) Homogeneous Time-Resolved Fluorescence (HTRF) assay buffer (Cisbio cat; #62AM4PEJ). The assay was performed in 384-well assay plates (Perkin-Elmer; cat #6008289) according to assay protocol provided by the manufacturer. Serial dilutions of a compound together with assay buffer containing […] IBMX and 2 μM forskolin were added to each well containing 5,000 cells and incubated for 30 minutes at room temperature. Subsequently, cAMP D2 reagent was added in the lysis buffer followed by the EuK antibody (Cisbio; cat #62AM4PEJ) and incubated for 60 min. The fluorescence emission ratio was measured using fluorometer. The intracellular cAMP concentrations (compound-stimulated inhibition of forskolin-mediated cAMP production) were calculated by extrapolation from a standard curve using known cAMP concentrations. The EC50 values were obtained by fitting the data to a sigmoidal concentration-response curve with variable slope.\n(§4) The EC50 value of each compound is presented at the end of the example description.\n(§5) The biological activity of the exemplified compounds of this invention determined by the assay described above is shown at the end of each example.", "units": {"EC50": "nM"}, "values": [
      {"smiles": "COc1cccc(OC)c1-n1c(-c2csc(C)n2)nc(=O)c(C(=O)N2CCC(c3c(F)cccc3F)C2)c1O", "note": "(single isomer, unassigned) [Example 270, 5-[3-(2,6-difluorophenyl)pyrrolidine-1-carbonyl]-1-(2,6-dimethoxyphenyl)-6-hydroxy-2-(2-methyl-1,3-thiazol-4-yl)-1,4-dihydropyrimidin-4-one]", "EC50": "0.01 to 10"},
      {"smiles": "COc1cccc(OC)c1-n1c(-c2cncc(Cl)c2)nc(=O)c(C(=O)N2CCC(c3ccc(F)cc3F)C2)c1O", "note": "(single isomer, unassigned) [Example 260, 2-(5-chloropyridin-3-yl)-5-[3-(2,4-difluorophenyl)pyrrolidine-1-carbonyl]-1-(2,6-dimethoxyphenyl)-6-hydroxy-1,4-dihydropyrimidin-4-one]", "EC50": "0.01 to 10"},
      {"smiles": "CC[C@@H](c1ccccc1)n1c(-c2nc(C)cs2)nc(=O)c(C(=O)N2CCC(c3ccc(F)cn3)C2)c1O", "note": "(single isomer, unassigned) [Example 322]", "EC50": "0.01 to 10"},
      {"smiles": "COc1cccc(OC)c1-n1c(-c2cncc(C)c2)nc(=O)c(C(=O)N2CCC(c3ccc(F)cc3)C2)c1O", "note": "(single isomer, unassigned) [Example 232, 1-(2,6-dimethoxyphenyl)-5-[3-(4-fluorophenyl)pyrrolidine-1-carbonyl]-6-hydroxy-2-(5-methylpyridin-3-yl)-1,4-dihydropyrimidin-4-one]", "EC50": "0.01 to 10"},
      {"smiles": "CCn1ccc(-c2nc(=O)c(C(=O)N3CCC(c4ccccc4F)C3)c(O)n2-c2cccc(C(C)C)c2)n1", "note": "(single isomer, unassigned) [Example 294, 2-(1-ethyl-1H-pyrazol-3-yl)-5-[3-(2-fluorophenyl)pyrrolidine-1-carbonyl]-6-hydroxy-1-[3-(propan-2-yl)phenyl]-1,4-dihydropyrimidin-4-one]", "EC50": "0.01 to 10"},
      {"smiles": "CC[C@@H](c1ccccc1)n1c(-c2nc(C)cs2)nc(=O)c(C(=O)N2CCC(c3ccccc3F)C2)c1O", "note": "(single isomer, unassigned) [Example 324]", "EC50": "0.01 to 10"}
    ]},
    {"target": "T1, human APJ receptor", "assay": "Intracellular cAMP Accumulation Assay (APJ hcAMP, HTRF)", "assay_type": "cell-based", "settings": "human APJ, intracellular cAMP accumulation; read-out: hAPJ cAMP EC50 Potency range", "protocol": "as §1, §2, §3, §4, §5", "units": {"EC50": "nM"}, "values": [
      {"smiles": "COc1cccc(OC)c1-n1c(COC(C)C)nc(=O)c(C(=O)N2CCC(c3ccccc3C)C2)c1O", "note": "(single isomer, unassigned) [Example 98, 1-(2,6-dimethoxyphenyl)-6-hydroxy-5-[3-(2-methylphenyl)pyrrolidine-1-carbonyl]-2-[(propan-2-yloxy)methyl]-1,4-dihydropyrimidin-4-one]", "EC50": "0.01 to 10"},
      {"smiles": "CC[C@@H](c1cc(F)cc(F)c1)n1c(-c2cnn(C)c2)nc(=O)c(C(=O)N2CCC(c3cc(F)ccn3)C2)c1O", "note": "(single isomer, unassigned) [Example 203]", "EC50": "0.01 to 10"},
      {"smiles": "CCCCc1nc(=O)c(C(=O)N2CC(c3cccc(Cl)c3)C2)c(O)n1-c1c(OC)cccc1OC", "note": "[Example 88, 2-butyl-5-[3-(3-chlorophenyl)azetidine-1-carbonyl]-3-(2,6-dimethoxyphenyl)-6-hydroxy-3,4-dihydropyrimidin-4-one]", "EC50": "0.01 to 10"},
      {"smiles": "CCCCc1nc(=O)c(C(=O)N2CC[C@@H](c3ccccc3)C2)c(O)n1[C@@H](C)C1CC1", "note": "[Example 131, 2-butyl-3-[(1S)-1-cyc1opropylethyl]-6-hydroxy-5-[(3S)-3-phenylpyrrolidine-1-carbonyl]-3,4-dihydropyrimidin-4-one]", "EC50": "10 to 100"},
      {"smiles": "CC[C@@H](c1cc(F)cc(F)c1)n1c(-c2cnn(C)c2)nc(=O)c(C(=O)N2CCC(c3ccc(F)cn3)C2)c1O", "note": "(single isomer, unassigned) [Example 220]", "EC50": "0.01 to 10"},
      {"smiles": "CCCCc1nc(=O)c(C(=O)N2CC[C@@H](c3ccccc3)C2)c(O)n1C(C)c1ccccc1", "note": "(stereo partly drawn) [Example 136, 2-butyl-6-hydroxy-3-(1-phenylethyl)-5-[(3S)-3-phenylpyrrolidine-1-carbonyl]-3,4-dihydropyrimidin-4-one]", "EC50": "10 to 100"},
      {"smiles": "CC[C@@H](c1cc(F)cc(F)c1)n1c(-c2ccn(C)n2)nc(=O)c(C(=O)N2CCC(c3ccc(F)cc3)C2)c1O", "note": "(single isomer, unassigned) [Example 194]", "EC50": "0.01 to 10"},
      {"smiles": "CC[C@@H](c1cc(F)cc(F)c1)n1c(-c2cnn(C)c2)nc(=O)c(C(=O)N2CCC(c3ncc(F)cc3F)C2)c1O", "note": "(single isomer, unassigned) [Example 188]", "EC50": "0.01 to 10"},
      {"smiles": "CCCCc1nc(=O)c(C(=O)N2CC[C@H](c3ccccc3)C2)c(O)n1[C@H](CC)c1ccccc1", "note": "[Example 124, 2-butyl-6-hydroxy-3-[(1R)-1-phenylpropyl]-5-[(3R)-3-phenylpyrrolidine-1-carbonyl]-3,4-dihydropyrimidin-4-one]", "EC50": "0.01 to 10"},
      {"smiles": "CCCCc1nc(=O)c(C(=O)N2CC[C@H](c3ccccc3)C2)c(O)n1[C@@H](CCC)c1ccccc1", "note": "[Example 137, 2-butyl-6-hydroxy-3-[(1S)-1-phenylbutyl]-5-[(3R)-3-phenylpyrrolidine-1-carbonyl]-3,4-dihydropyrimidin-4-one]", "EC50": "10 to 100"},
      {"smiles": "COc1cccc(OC)c1-n1c(COC(C)C)nc(=O)c(C(=O)N2CCC(c3ccc(F)cc3)C2)c1O", "note": "(single isomer, unassigned) [Example 102, 1-(2,6-dimethoxyphenyl)-5-[3-(4-fluorophenyl)pyrrolidine-1-carbonyl]-6-hydroxy-2-[(propan-2-yloxy)methyl]-1,4-dihydropyrimidin-4-one]", "EC50": "0.01 to 10"},
      {"smiles": "CCCCc1nc(=O)c(C(=O)N2CC[C@@H](c3ccccc3)C2)c(O)n1[C@@H](CCC)c1ccccc1", "note": "[Example 153, 2-butyl-6-hydroxy-3-[(1S)-1-phenylbutyl]-5-[(3S)-3-phenylpyrrolidine-1-carbonyl]-3,4-dihydropyrimidin-4-one]", "EC50": "10 to 100"},
      {"smiles": "COc1cccc(OC)c1-n1c(CCC2CC2)nc(=O)c(C(=O)N2CCC(c3ncc(F)cc3F)C2)c1O", "note": "(single isomer, unassigned) [Example 169, 2-(2-cyclopropylethyl)-5-[3-(3,5-difluoropyridin-2-yl)pyrrolidine-1-carbonyl]-1-(2,6-dimethoxyphenyl)-6-hydroxy-1,4-dihydropyrimidin-4-one]", "EC50": "0.01 to 10"},
      {"smiles": "CC[C@@H](c1cc(F)cc(F)c1)n1c(-c2ccn(CC)n2)nc(=O)c(C(=O)N2CCC(c3ncc(Cl)cc3F)C2)c1O", "note": "(single isomer, unassigned) [Example 214]", "EC50": "0.01 to 10"},
      {"smiles": "CCCCc1nc(=O)c(C(=O)N2CC[C@@H](c3ccccc3)C2)c(O)n1[C@@H](C)c1ccc(F)cc1", "note": "[Example 143, 2-butyl-3-[(1S)-1-(4-fluorophenyl)ethyl]-6-hydroxy-5-[(3S)-3-phenylpyrrolidine-1-carbonyl]-3,4-dihydropyrimidin-4-one]", "EC50": "10 to 100"},
      {"smiles": "CCCCc1nc(=O)c(C(=O)N2CCC(c3ccccc3F)C2)c(O)n1-c1c(OC)cccc1OC", "note": "(single isomer, unassigned) [Example 53, 2-butyl-1-(2,6-dimethoxyphenyl)-5-[3-(2-fluorophenyl)pyrrolidine-1-carbonyl]-6-hydroxy-1,4-dihydropyrimidin-4-one]", "EC50": "0.01 to 10"},
      {"smiles": "CCOCc1nc(=O)c(C(=O)N2CCC(c3cccnc3)C2)c(O)n1-c1c(OC)cccc1OC", "note": "(single isomer, unassigned) [Example 82, 1-(2,6-dimethoxyphenyl)-2-(ethoxymethyl)-6-hydroxy-5-[3-(pyridin-3-yl)pyrrolidine-1-carbonyl]-1,4-dihydropyrimidin-4-one]", "EC50": "0.01 to 10"},
      {"smiles": "CC[C@@H](c1cc(F)cc(F)c1)n1c(-c2nc(C)cs2)nc(=O)c(C(=O)N2CCC(c3ncc(F)cc3F)C2)c1O", "note": "(single isomer, unassigned) [Example 210]", "EC50": "0.01 to 10"},
      {"smiles": "CCCCc1nc(=O)c(C(=O)N2CC[C@@H](c3ccccc3)C2)c(O)n1[C@@H](C)c1ccccc1", "note": "[Example 125, 2-butyl-6-hydroxy-3-[(1S)-1-phenylethyl]-5-[(3S)-3-phenylpyrrolidine-1-carbonyl]-3,4-dihydropyrimidin-4-one]", "EC50": "0.01 to 10"},
      {"smiles": "COc1cccc(OC)c1-n1c(CCC2CC2)nc(=O)c(C(=O)N2CCC(c3ncc(F)cc3F)C2)c1O", "note": "(single isomer, unassigned) [Example 168, 2-(2-cyclopropylethyl)-5-[3-(3,5-difluoropyridin-2-yl)pyrrolidine-1-carbonyl]-1-(2,6-dimethoxyphenyl)-6-hydroxy-1,4-dihydropyrimidin-4-one]", "EC50": "0.01 to 10"},
      {"smiles": "CCCCc1nc(=O)c(C(=O)N2CC[C@H](c3ccccc3)C2)c(O)n1[C@@H](C)c1cccc(OC)c1", "note": "[Example 139, 2-butyl-6-hydroxy-3-[(1S)-1-(3-methoxyphenyl)ethyl]-5-[(3R)-3-phenylpyrrolidine-1-carbonyl]-3,4-dihydropyrimidin-4-one]", "EC50": "10 to 100"}
    ]},
    {"target": "T1, human APJ receptor", "assay": "Intracellular cAMP Accumulation Assay (APJ hcAMP, HTRF)", "assay_type": "cell-based", "settings": "read-out: hAPJ cAMP EC50 Potency range", "protocol": "as §1, §2, §3, §4, §5", "units": {"EC50": "nM"}, "values": [
      {"smiles": "COc1cccc(OC)c1-n1c(COC(C)(C)C)nc(=O)c(C(=O)N2CCC(c3ccccc3C#N)C2)c1O", "note": "(single isomer, unassigned) [Example 369, 2-(1-(2-(tert-butoxymethyl)-1-(2,6-dimethoxyphenyl)-6-hydroxy-4-oxo-1,4-dihydropyrimidine-5-carbonyl)pyrrolidin-3-yl)benzonitrile]", "EC50": "0.01 to 10"}
    ]}
  ]
}
